{"source": "patent US9140688B2", "about": "“Sperm staining and sorting methods” (INGURAN, LLC, priority 2011, dated 2015)", "key": {"[1]": {"settings": "solvent water, cited from earlier work"}, "[2]": {"system": "X- and Y-chromosome bearing bovine sperm stained with Hoechst 33342", "assay": "Split quality: height of peak divided by height of valley (PV), flow cytometry of stained bovine sperm", "format": "cell-based", "settings": "for Height of Peak/Height of Valley: Ex 5; for Height of Peak Divided by Height of Valley: Ex 7, Phenol Red 620 μM with Yellow 6 62 μM"}, "[3]": {"system": "membrane compromised bovine sperm stained with Hoechst 33342", "assay": "Dead quenching: dead gate intensity divided by live gate intensity, flow cytometry of stained bovine sperm", "format": "cell-based", "settings": "for Dead Intensity (dead gate intensity divided by live gate intensity): Ex 5; for Intensity (dead gate): Hoechst 48 μM", "description": "FIG. 4 illustrates an example bivariate plot and univariate histogram of the parameters measured during sex selection by a FACS on a flow cytometer. […] Without a dead quenching dye, both populations of sperm would overlap to a large extent, with unpredictable variations in the dead sperm.\nThe entire ejaculate of sperm was suspended in first staining buffer, specifically a 7.4 pH TALP described in TABLE 1, to a concentration of 160×10^6 sperm per mL (determined on nucleocounter) and divided into three aliquots of about 20 mL into 50 mL Falcon tubes and pre-warmed for 10 minutes at 34° C. The DNA selective fluorescent dye, Hoechst 33342, was added and samples were held at 34° C. for 60 minutes. 3 different Hoechst 33342 Stain Levels were used=12 μL, 14 μL and 16 μL per 2 mL (effective concentrations of 48 μM, 56 μM, 64 μM).\nPreparation of the second buffer including the dead quenching dye—A 2 L bag of TALP, described in TABLE 1, was adjusted to pH 5.60 using HCl and then sterile filtered. […] For each of the four dyes tested (R40—red food dye No. 40, Y5—yellow food dye No. 5, Y6—yellow food dye No. 6 and PR—phenol red), an appropriate number of milligrams of each powder was placed in a Erlenmeyer Flask and then an exact amount of TALP pH 5.60 was added to create a […] concentration of the dye. The result was a working TALP stock for each dye with a 100% (125 μM) relative amount of dye 50% relative (62.5 μM) and 20% relative (25 μM) solutions were made by dilution of 100% by TALP pH 5.60.\nAfter this “bulk” staining for 60 minutes, 1 mL aliquots of stained sperm were combined with 1 mL aliquots of the second buffer including the dead quenching dyes. Samples sat for approximately 30 minutes at room temperature before being analyzed on a MoFlo SX (Beckman Coulter, USA) sperm sorting flow cytometer. Event rates were held as close to 13,000 as possible at the point of data acquisition.\nThe total number of individual treatments was 42 tubes, each containing 2 mL of stained sample. The alignment of the sorter was established using nuclei and confirmed with live sample from the 50% Red 40 series. Once good alignment was established, each tube was placed on the sorter long enough to establish a stabile dead gate population (about 30 seconds) and then a screenshot was taken and saved as a .jpeg image. This approach of rapidly documenting each sample is used to assure the most consistent alignment between all samples. Realignment of sorter will not cause differences in the intensities of live and dead gate populations but will cause differences in split quality.\nFIG. 4 illustrates an example histogram. The ratio of dead gate intensity divided by live gate intensity is created by dividing the distance “A” by the distance “B” shown as a percentage. Lower values mean higher levels of quenching. The ratio of peak height divided by valley height is created by dividing the distance “C” by the distance “D”. A value of 1.00 means “no split” while higher values mean “better splits”. […]"}, "[4]": {"settings": "dye 62.5 μM, Hoechst 12 μL/2 mL"}, "[5]": {"settings": "dye 62.5 μM, Hoechst 14 μL/2 mL"}, "[6]": {"settings": "dye 62.5 μM, Hoechst 16 μL/2 mL"}}, "note": "Where two headings read alike, the source gives them in different places."}
{"smiles": "O=S1(=O)OC(c2ccc(O)cc2)(c2ccc(O)cc2)c2ccccc21", "note": "[Phenol Red, phenolsulfonphthalein]", "values": [{"measurement": "Expected Absorption Maxima", "setting": "[1]; longer-wavelength local maximum", "value": 560, "unit": "nm"}, {"measurement": "Expected Absorption Maxima", "setting": "[1]; shorter-wavelength local maximum", "value": 440, "unit": "nm"}, {"measurement": "Height of Peak/Height of Valley", "setting": "[2]; dye 25 μM, Average of 12 and 14 μL series", "value": 1.74}, {"measurement": "Height of Peak/Height of Valley", "setting": "[2]; dye 25 μM, Hoechst 12 μL/2 mL", "value": 1.82}, {"measurement": "Height of Peak/Height of Valley", "setting": "[2]; dye 25 μM, Hoechst 14 μL/2 mL", "value": 1.65}, {"measurement": "Height of Peak/Height of Valley", "setting": "[2]; dye 25 μM, Hoechst 16 μL/2 mL", "value": 1.00}, {"measurement": "Height of Peak/Height of Valley", "setting": "[2]; dye 62.5 μM, Average of 12 and 14 μL series", "value": 1.75}, {"measurement": "Height of Peak/Height of Valley", "setting": "[2]; [4]", "value": 1.62}, {"measurement": "Height of Peak/Height of Valley", "setting": "[2]; [5]", "value": 1.87}, {"measurement": "Height of Peak/Height of Valley", "setting": "[2]; [6]", "value": 1.00}, {"measurement": "Height of Peak/Height of Valley", "setting": "[2]; dye 125 μM, Average of 12 and 14 μL series", "value": 1.62}, {"measurement": "Height of Peak/Height of Valley", "setting": "[2]; dye 125 μM, Hoechst 12 μL/2 mL", "value": 1.49}, {"measurement": "Height of Peak/Height of Valley", "setting": "[2]; dye 125 μM, Hoechst 14 μL/2 mL", "value": 1.75}, {"measurement": "Height of Peak/Height of Valley", "setting": "[2]; dye 125 μM, Hoechst 16 μL/2 mL", "value": 1.00}, {"measurement": "PV", "setting": "[2]; Ex 6, dye 125 μM, pH 7.40, Hoechst 48 μM", "value": 1.27}, {"measurement": "PV", "setting": "[2]; Ex 6, dye 125 μM, resulting pH 6.70, Hoechst 48 μM", "value": 1.00}, {"measurement": "PV", "setting": "[2]; Ex 6, dye 250 μM, pH 7.40, Hoechst 48 μM", "value": 1.22}, {"measurement": "PV", "setting": "[2]; Ex 6, dye 250 μM, resulting pH 6.70, Hoechst 48 μM", "value": 1.17}, {"measurement": "PV", "setting": "[2]; Ex 6, dye 500 μM, pH 7.40, Hoechst 48 μM", "value": 1.51}, {"measurement": "PV", "setting": "[2]; Ex 6, dye 500 μM, resulting pH 6.70, Hoechst 48 μM", "value": 1.25}, {"measurement": "PV", "setting": "[2]; Ex 6, dye 750 μM, pH 7.40, Hoechst 48 μM", "value": 1.46}, {"measurement": "PV", "setting": "[2]; Ex 6, dye 750 μM, resulting pH 6.70, Hoechst 48 μM", "value": 1.25}, {"measurement": "PV", "setting": "[2]; Ex 6, dye 875 μM, pH 7.40, Hoechst 48 μM", "value": 1.44}, {"measurement": "PV", "setting": "[2]; Ex 6, dye 875 μM, resulting pH 6.70, Hoechst 48 μM", "value": 1.20}, {"measurement": "PV", "setting": "[2]; Ex 6, dye 1250 μM, pH 7.40, Hoechst 48 μM", "value": 1.30}, {"measurement": "PV", "setting": "[2]; Ex 6, dye 1250 μM, resulting pH 6.70, Hoechst 48 μM (understained)", "value": 1.29}, {"measurement": "Height of Peak Divided by Height of Valley", "setting": "[2]; cells 100 million per mL", "value": 1.49}, {"measurement": "Height of Peak Divided by Height of Valley", "setting": "[2]; cells 150 million per mL", "value": 1.34}, {"measurement": "Height of Peak Divided by Height of Valley", "setting": "[2]; cells 250 million per mL", "value": 1.43}, {"measurement": "Height of Peak Divided by Height of Valley", "setting": "[2]; cells 300 million per mL", "value": 1.36}, {"measurement": "PV", "setting": "[2]; Ex 8, Bull 1, Hoechst 44 μM, PR 250 μM with Y6 50 μM", "value": 1.52}, {"measurement": "PV", "setting": "[2]; Ex 8, Bull 1, Hoechst 44 μM, PR 500 μM alone", "value": 1.97}, {"measurement": "PV", "setting": "[2]; Ex 8, Bull 1, Hoechst 60 μM, PR 375 μM alone", "value": 2.38}, {"measurement": "PV", "setting": "[2]; Ex 8, Bull 1, Hoechst 60 μM, PR 375 μM with Y6 50 μM", "value": 2.38}, {"measurement": "PV", "setting": "[2]; Ex 8, Bull 1, Hoechst 60 μM, PR 1200 μM with R40 20 μM", "value": 2.12}, {"measurement": "PV", "setting": "[2]; Ex 8, Bull 2, Hoechst 28 μM, PR 375 μM alone", "value": 1.96}, {"measurement": "PV", "setting": "[2]; Ex 8, Bull 2, Hoechst 28 μM, PR 375 μM with Y6 50 μM", "value": 2.05}, {"measurement": "PV", "setting": "[2]; Ex 8, Bull 2, Hoechst 44 μM, PR 225 μM with Y6 50 μM", "value": 1.56}, {"measurement": "PV", "setting": "[2]; Ex 8, Bull 2, Hoechst 44 μM, PR 375 μM with R40 20 μM", "value": 1.64}, {"measurement": "PV", "setting": "[2]; Ex 8, Bull 2, Hoechst 44 μM, PR 375 μM with Y6 50 μM", "value": 1.75}, {"measurement": "PV", "setting": "[2]; Ex 8, Bull 2, Hoechst 60 μM, PR 375 μM with Y6 50 μM", "value": 1.69}, {"measurement": "PV", "setting": "[2]; Ex 8, Bull 2, Hoechst 60 μM, PR 375 μM with Y6 375 μM", "value": 2.31}, {"measurement": "effect of addition on split quality, in words", "setting": "[2]; Ex 8, each Hoechst level, with Red 40 or Yellow 6", "value": "always improved split quality"}, {"measurement": "split enhancing effect compared to control, in words", "setting": "[2]; Ex 10, 15, 45, 125 μM, averaged over 8 bulls", "value": "consistent split improvements at all concentrations after 30 minutes"}, {"measurement": "Dead Intensity (dead gate intensity divided by live gate intensity)", "setting": "[3]; dye 25 μM, Average of Hoechst levels", "value": 94, "unit": "%"}, {"measurement": "Dead Intensity (dead gate intensity divided by live gate intensity)", "setting": "[3]; dye 25 μM, Hoechst 12 μL/2 mL", "value": 94, "unit": "%"}, {"measurement": "Dead Intensity (dead gate intensity divided by live gate intensity)", "setting": "[3]; dye 25 μM, Hoechst 14 μL/2 mL", "value": 97, "unit": "%"}, {"measurement": "Dead Intensity (dead gate intensity divided by live gate intensity)", "setting": "[3]; dye 25 μM, Hoechst 16 μL/2 mL", "value": 90, "unit": "%"}, {"measurement": "Dead Intensity (dead gate intensity divided by live gate intensity)", "setting": "[3]; dye 62.5 μM, Average of Hoechst levels", "value": 87, "unit": "%"}, {"measurement": "Dead Intensity (dead gate intensity divided by live gate intensity)", "setting": "[3]; [4]", "value": 90, "unit": "%"}, {"measurement": "Dead Intensity (dead gate intensity divided by live gate intensity)", "setting": "[3]; [5]", "value": 90, "unit": "%"}, {"measurement": "Dead Intensity (dead gate intensity divided by live gate intensity)", "setting": "[3]; [6]", "value": 80, "unit": "%"}, {"measurement": "Dead Intensity (dead gate intensity divided by live gate intensity)", "setting": "[3]; dye 125 μM, Average of Hoechst levels", "value": 79, "unit": "%"}, {"measurement": "Dead Intensity (dead gate intensity divided by live gate intensity)", "setting": "[3]; dye 125 μM, Hoechst 12 μL/2 mL", "value": 80, "unit": "%"}, {"measurement": "Dead Intensity (dead gate intensity divided by live gate intensity)", "setting": "[3]; dye 125 μM, Hoechst 14 μL/2 mL", "value": 80, "unit": "%"}, {"measurement": "Dead Intensity (dead gate intensity divided by live gate intensity)", "setting": "[3]; dye 125 μM, Hoechst 16 μL/2 mL", "value": 78, "unit": "%"}, {"measurement": "amount of dye needed for a similar dead gate intensity ratio as red food dye No. 40 and yellow food dye No. 6", "setting": "[3]; Ex 6", "value": "twelve times more"}, {"measurement": "Intensity (dead gate)", "setting": "[3]; Ex 6, dye 125 μM, pH 7.40", "value": 85, "unit": "%"}, {"measurement": "Intensity (dead gate)", "setting": "[3]; Ex 6, dye 125 μM, resulting pH 6.70", "value": 79, "unit": "%"}, {"measurement": "Intensity (dead gate)", "setting": "[3]; Ex 6, dye 250 μM, pH 7.40", "value": 76, "unit": "%"}, {"measurement": "Intensity (dead gate)", "setting": "[3]; Ex 6, dye 250 μM, resulting pH 6.70", "value": 70, "unit": "%"}, {"measurement": "Intensity (dead gate)", "setting": "[3]; Ex 6, dye 500 μM, pH 7.40", "value": 66, "unit": "%"}, {"measurement": "Intensity (dead gate)", "setting": "[3]; Ex 6, dye 500 μM, resulting pH 6.70", "value": 67, "unit": "%"}, {"measurement": "Intensity (dead gate)", "setting": "[3]; Ex 6, dye 750 μM, pH 7.40", "value": 56, "unit": "%"}, {"measurement": "Intensity (dead gate)", "setting": "[3]; Ex 6, dye 750 μM, resulting pH 6.70", "value": 55, "unit": "%"}, {"measurement": "Intensity (dead gate)", "setting": "[3]; Ex 6, dye 875 μM, pH 7.40", "value": 47, "unit": "%"}, {"measurement": "Intensity (dead gate)", "setting": "[3]; Ex 6, dye 875 μM, resulting pH 6.70", "value": 45, "unit": "%"}, {"measurement": "Intensity (dead gate)", "setting": "[3]; Ex 6, dye 1250 μM, pH 7.40", "value": 43, "unit": "%"}, {"measurement": "Intensity (dead gate)", "setting": "[3]; Ex 6, dye 1250 μM, second buffer pH 5.60 (resulting pH 6.70)", "value": 41, "unit": "%"}]}
